Source: patent US20240400579A1, “SPIROCYCLIC MODULATORS OF CHOLESTEROL BIOSYNTHESIS AND THEIR USE FOR PROMOTING REMYELINATION” (GENENTECH, INC., priority 2021, published 2024)

Experiments:
[1] = tested on: zymostenol accumulation in EpiSC-derived OPCs (EBP); assay: GC/MS-based sterol profiling, zymostenol accumulation; assay type: cell-based, mouse; conditions: Mus musculus, 24 h, 8 doses from 0.15 nM to 333 nM, read-out: mZymo GCMS EC50
How it was run: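 EpiSC-derived mouse OPCs plated at 100,000 cells/well in N2B27 without growth factors and treated 24 h. Sterols extracted, silylated with BSTFA and measured by GC/MS (EI, full scan), quantified against cholesterol-d7. Zymostenol normalized to levels after 24 h with 100 nM positive control reference.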

EpiSC-derived OPCs = assay: In vitro phenotypic screening of OPCs, MBP high-content imaging; assay type: cell-based, mouse; conditions: Mus musculus, 72 h, percentage of MBP+ oligodendrocytes; 3 days; 0.5 nM to 1000 nM; read-out: mOPC EC50
How it was run: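 Mouse EpiSC-derived OPCs seeded without growth factors and exposed 3 days at 37° C. to 8-point doses, 1000 nM to 0.5 nM final. Fixed cells stained for MBP and DAPI; high-content imaging gave percentage MBP+ oligodendrocytes, with EC50 from Hill-equation fit.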

| EC50 [1] [nM] | EC50 (EpiSC-derived OPCs) [nM] | SMILES |
| --- | --- | --- |
| 0.82 | 0.72 | C[C@H](Cc1ccc(C(F)(F)F)cc1)CN1CCC2(C1)CS(=O)(=O)C2 (single isomer, unassigned) [114B*] |
| 9.5 | 22 | CCC(C)(C)c1ccc(CC(C)CN2CCC3(C2)CS(=O)(=O)C3)cc1 (racemic) [Compound 107, 6-(2-Methyl-3-(4-(tert-pentyl)phenyl)propyl)-2-thia-6-azaspiro[3.4]octane 2,2-dioxide] |
| 2.1 | 5 | CC(C)(Cc1ccc(C(F)(F)F)nc1)CN1CCC2(C1)CS(=O)(=O)C2 [Example 140, 6-(2,2-Dimethyl-3-(6-(trifluoromethyl)pyridin-3-yl)propyl)-2-thia-6-azaspiro[3.4]octane-2,2-dioxide] |
| 1.6 | 0.46 | CC(C)(Cc1ccc(C2CCC(F)(F)CC2)c(Cl)c1)CN1CCC2(C1)CS(=O)(=O)C2 [Example 139, 6-(3-(3-Chloro-4-(4,4-difluorocyclohexyl)phenyl)-2,2-dimethylpropyl)-2-thia-6-azaspiro[3.4]octane 2,2-dioxide] |
| 1.6 | 1.8 | CC(Cc1ccc(C2CCC2)cc1)CN1CCC2(C1)CS(=O)(=O)C2 (racemic) [Compound 109A, 6-(3-(4-cyclobutylphenyl)-2-methylpropyl)-2-thia-6-azaspiro[3.4]octane 2,2-dioxide] |
| 2.8 | 26 | COC(Cc1ccc(C(F)(F)F)cc1)CN1CCC2(C1)CS(=O)(=O)C2 (racemic) [Example 143, (S)-6-(2-Methoxy-3-(4-(trifluoromethyl)phenyl)propyl)-2-thia-6-azaspiro[3.4]octane 2,2-dioxide and (R)-6-(2-methoxy-3-(4-(trifluoromethyl)phenyl)propyl)-2-thia-6-azaspiro[3.4]octane 2,2-dioxide] |
| 32 | 140 | CC(C)(CN1CCC2(C1)CS(=O)(=O)C2)Oc1ccc(C(F)(F)F)nc1 [Example 135, 6-(2-Methyl-2-((6-(trifluoromethyl)pyridin-3-yl)oxy)propyl)-2-thia-6-azaspiro[3.4]octane-2,2-dioxide] |
| 1.2 | 2.1 | O=S1(=O)CC2(CCN(CC[C@H](F)c3ccc(C(F)(F)F)cc3)C2)C1 (single isomer, unassigned) [Compound 122B] |
| 1.6 | 7.8 | CC(C)(CN1CCC2(C1)CS(=O)(=O)C2)Oc1cccc(OC(F)(F)F)c1 [Example 131, 6-(2-Methyl-2-(3-(trifluoromethoxy)phenoxy)propyl)-2-thia-6-azaspiro[3.4]octane 2,2-dioxide] |
| 11 | 22 | O=S1(=O)CC2(CCN(CCOc3ccc(C(F)(F)F)nc3)CC2)C1 [Compound 230, 7-(2-((6-(Trifluoromethyl)pyridin-3-yl)oxy)ethyl)-2-thia-7-azaspiro[3.5]nonane 2,2-dioxide] |
| 3.2 | 5.5 | O=S1(=O)CCC2(CC1)CN(CCOc1ccc(C(F)(F)F)cc1)C2 [Example 201, 2-(2-(4-(Trifluoromethyl)phenoxy)ethyl)-7-thia-2-azaspiro[3.5]nonane 7,7-dioxide] |
| 5.5 | 21 | CC(C)(CN1CC[C@@]2(CCS(=O)(=O)C2)C1)Oc1ccc(C(F)(F)F)cc1 (single isomer, unassigned) [Compound 141A] |
| 3.6 | 12 | CC(C)(CN1CCC2(C1)CS(=O)(=O)C2)Oc1ccc(OC(F)(F)F)cc1 [Example 136, 6-(2-Methyl-2-(4-(trifluoromethoxy)phenoxy)propyl)-2-thia-6-azaspiro[3.4]octane 2,2-dioxide] |
| 23 | 370 | C[C@@H](Cc1ccc(C(F)F)cc1)CN1CCC2(C1)CS(=O)(=O)C2 (single isomer, unassigned) [Compound 128A] |
| 1.3 | 33 | O=S1(=O)CC2(CCN(CCOc3ccc(C(F)(F)F)cc3)C2)C1 [Compound 112, 6-(2-(4-(Trifluoromethyl)phenoxy)ethyl)-2-thia-6-azaspiro[3.4]octane-2,2-dioxide] |
| 49 | 480 | CC(C)(CN1CC[C@]2(CCS(=O)(=O)C2)C1)Oc1ccc(C(F)(F)F)cc1 (single isomer, unassigned) [Compound 141B] |
| 12 | 9.4 | O=S1(=O)CC2(CCN(CC3(Cc4ccc(C(F)(F)F)nc4)CC3)C2)C1 [Example 157, 6-((1-((6-(Trifluoromethyl)pyridin-3-yl)methyl)cyclopropyl)methyl)-2-thia-6-azaspiro[3.4]octane 2,2-dioxide] |
| 1 | 2.3 | CC(C)(CN1CCC2(CC1)CS(=O)(=O)C2)Oc1ccc(C(F)(F)F)cc1 [Example 138, 7-(2-Methyl-2-(4-(trifluoromethyl)phenoxy)propyl)-2-thia-7-azaspiro[3.5]nonane 2,2-dioxide] |
| 1.6 | 4.9 | C[C@@H](CN1CCC2(CC1)CS(=O)(=O)C2)Oc1ccc(F)c(F)c1 (single isomer, unassigned) [221A*] |
| 2.9 | 10 | CC(C)(CN1CCC2(C1)CS(=O)(=O)C2)Oc1cccc(C(F)(F)F)c1 [Example 130, 6-(2-Methyl-2-(3-(trifluoromethyl)phenoxy)propyl)-2-thia-6-azaspiro[3.4]octane-2,2-dioxide] |
| 13 | 23 | C[C@@H](Cc1cnc(C(F)(F)F)nc1)CN1CCC2(CC1)CS(=O)(=O)C2 (single isomer, unassigned) [215A*] |
| 80 | 390 | CC(C)(CN1CCC2(C1)CS(=O)(=O)C2)Oc1cnc(C(F)(F)F)nc1 [Example 144, 6-(2-Methyl-2-((2-(trifluoromethyl)pyrimidin-5-yl)oxy)propyl)-2-thia-6-azaspiro[3.4]octane-2,2-dioxide] |
| 7.2 | 73 | CC(C)(Cc1ccc(C(F)(F)F)nc1)CN1CC[C@@]2(CCS(=O)(=O)C2)C1 (single isomer, unassigned) [Compound 148B] |
| 0.37 | 2.4 | C[C@@H](Cc1ccc(C(F)(F)F)cc1)CN1CCC2(C1)CS(=O)(=O)C2 (single isomer, unassigned) [114A*] |
| 17 | 51 | C[C@H](Cc1cnc(C(F)(F)F)nc1)CN1CCC2(CC1)CS(=O)(=O)C2 (single isomer, unassigned) [215B*] |
| 19 | 190 | CC(C)(CN1CCC2(C1)CS(=O)(=O)C2)Oc1ccc(C2CCC2)cc1 [Example 129, 6-(2-(4-Cyclobutylphenoxy)-2-methylpropyl)-2-thia-6-azaspiro[3.4]octane-2,2-dioxide] |

| SMILES | EC50 [1] [nM] | EC50 (EpiSC-derived OPCs) [nM] |
| --- | --- | --- |
| C[C@H](Cc1ccnc(C(F)(F)F)c1)CN1CCC2(C1)CS(=O)(=O)C2 (single isomer, unassigned) [Compound 126B] | 14 | 230 |
| C[C@@H](Cc1ccnc(C(F)(F)F)c1)CN1CCC2(C1)CS(=O)(=O)C2 (single isomer, unassigned) [Compound 126A] | 3.8 | 10 |
| C[C@@H](Cc1cnc(C(F)(F)F)nc1)CN1CCC2(C1)CS(=O)(=O)C2 (single isomer, unassigned) [Compound 145A] | 8.1 | 69 |
| C[C@@H](Cc1ccc(C(F)(F)F)nc1)CN1CCC2(C1)CS(=O)(=O)C2 (single isomer, unassigned) [118A*] | 2.4 | 8.5 |
